The source of these data is patent publication US20240150293A1, “SPIROCYCLOHEXANE DERIVATIVES, PHARMACEUTICAL COMPOSITIONS CONTAINING THEM AND THEIR USES AS ANTI-APOPTOTIC INHIBITORS” (LES LABORATOIRES SERVIER, priority 2021, published 2024).

Usually Ki stands for a measure of affinity in units of concentration, obtained from inhibition or displacement.

The assay addresses Mcl-1 protein (UniProtKB Q07820) (Homo sapiens (Human), UniProt Q07820). The experiment in a line: Inhibition of Mcl-1 by the fluorescence polarisation assay (Example A, Method A). It is filed as binding. Conditions: fluorescence polarization assay. The method, then: The relative binding potency of each compound was determined via Fluorescence Polarisation (FP). The method utilised a Fluorescein labelled ligand (Fluorescein-βAla-Ahx-A-REIGAQLRRMADDLNAQY-OH; MW 2,765) which binds to the Mcl-1 protein (such that Mcl-1 corresponds to the UniProtKB® primary accession number: Q07820) leading to an increased anisotropy measured in milli-polarisation (mP) units using a reader. The addition of a compound which binds competitively to the same site as the ligand will result in a greater proportion of unbound ligand in the system indicated by a decrease in mP units.
An 11 point serial dilution of each compound was prepared in DMSO and 2 μl transferred into flat bottomed, low binding, 384-well plate (final DMSO concentration 5%). 38 μl of buffer containing the Fluorescein labelled ligand (final concentration 1 nM) and Mcl-1 protein (final concentration 5 nM) was then added. Buffer components were 10 mM 4-(2-hydroxyethyl)-1-piperazineethanesulfonic acid [HEPES], 150 mM NaCl, pH 7.4 with the addition of 0.05% Tween 20.
Assay plates were incubated for 2 hours at room temperature before FP was measured on a […] Synergy Neo reader ([…], Cut off 510 nm) and mP units calculated. The binding of increasing doses of test compound was expressed as a percentage reduction in mP compared to a window established between ‘5% DMSO only’ and ‘100% inhibition’ controls. 11-point dose response curves were plotted with XL-Fit software using a 4-Parameter Logistic Model (Sigmoidal Dose-Response Model) and the inhibitory concentrations that gave a 50% reduction in mP (IC50) were determined. The Ki values were determined from the IC50 values according to Cer et al, Nucleic Acids Res, 2009, 37 (WebServer issue): W441-W445. Inhibition constants (Ki) are determined from complete binding inhibition curves (cKi) or from estimated from incomplete binding inhibition curves (eKi) in most cases due to low activity.
For orientation: Fluorescence polarisation rises when a labelled molecule tumbles more slowly, as on binding a larger partner.

Mcl-1 protein, sequence (Q07820 whole entry): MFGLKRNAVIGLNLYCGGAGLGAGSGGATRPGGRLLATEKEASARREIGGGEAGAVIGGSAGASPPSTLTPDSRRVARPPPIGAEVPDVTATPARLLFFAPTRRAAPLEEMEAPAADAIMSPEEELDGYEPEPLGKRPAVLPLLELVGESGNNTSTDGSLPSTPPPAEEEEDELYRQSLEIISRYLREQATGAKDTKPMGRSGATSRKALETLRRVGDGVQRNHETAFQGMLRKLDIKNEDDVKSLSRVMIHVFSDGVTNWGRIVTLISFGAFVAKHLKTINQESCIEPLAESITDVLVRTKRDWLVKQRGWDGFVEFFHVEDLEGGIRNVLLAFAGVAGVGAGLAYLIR

As for `COc1ccc(C2Cc3ccccc3[C@]23CC[C@@](Nc2ccccc2)(C(=O)O)CC3)c(C)c1` (single isomer, unassigned) [Example 257, (1r,4r)-4-anilino-2′-(4-methoxy-2-methylphenyl)-2′,3′-dihydrospiro[cyclohexane-1,1′-indene]-4-carboxylic acid], the Ki turned out to be 40.4 µM. Next, `COc1ccc(Cl)c(C2Cc3ccccc3[C@]23CC[C@@](Nc2cccc(Cl)c2)(C(=O)O)CC3)c1` (single isomer, unassigned) [Example 258, (1r,4r)-4-(3-chloroanilino)-2′-(2-chloro-5-methoxyphenyl)-2′,3′-dihydrospiro[cyclohexane-1,1′-indene]-4-carboxylic acid]: 2.37 µM; `COc1ccc(Cl)c(C2Cc3ccccc3[C@]23CC[C@@](Nc2cccc(Cl)c2)(C(=O)O)CC3)c1` (single isomer, unassigned) [Example 259, (1r,4r)-4-(3-chloroanilino)-2′-(2-chloro-5-methoxyphenyl)-2′,3′-dihydrospiro[cyclohexane-1,1′-indene]-4-carboxylic acid]: 9.97 µM. `COc1ccc(Cl)c(C2Cc3ccccc3[C@]23CC[C@@](Nc2ccccc2)(C(=O)O)CC3)c1` (single isomer, unassigned) [Example 260, (1r,4r)-4-anilino-2′-(2-chloro-5-methoxyphenyl)-2′,3′-dihydrospiro[cyclohexane-1,1′-indene]-4-carboxylic acid]: the Ki came out at 90.1 µM.

On to `COc1ccc(Cl)c(C2Cc3ccccc3[C@]23CC[C@@](Nc2ccccc2)(C(=O)O)CC3)c1` (single isomer, unassigned) [Example 261, (1r,4r)-4-anilino-2′-(2-chloro-5-methoxyphenyl)-2′,3′-dihydrospiro[cyclohexane-1,1′-indene]-4-carboxylic acid], for which the Ki was 9.4 µM. Turning to `Cc1ccc(C2Cc3ccccc3C23CCC(Nc2cccc(Br)c2)(C(=O)O)CC3)s1` (single isomer, unassigned) [Example 262, 4-(3-bromoanilino)-2′-(5-methylthiophen-2-yl)-2′,3′-dihydrospiro[cyclohexane-1,1′-indene]-4-carboxylic acid], the Ki was found to be 0.236 µM.

On to `Cc1ccc(C2Cc3ccccc3C23CCC(Nc2cccc(Br)c2)(C(=O)O)CC3)s1` (single isomer, unassigned) [Example 263, 4-(3-bromoanilino)-2′-(5-methylthiophen-2-yl)-2′,3′-dihydrospiro[cyclohexane-1,1′-indene]-4-carboxylic acid], for which the Ki is 5.02 µM.

With `COc1ccc(C2Cc3ccccc3[C@]23CC[C@@](Nc2cccc(Cl)c2)(C(=O)O)CC3)c(Cl)c1` (single isomer, unassigned) [Example 268, (1r,4r)-4-(3-chloroanilino)-2′-(2-chloro-4-methoxyphenyl)-2′,3′-dihydrospiro[cyclohexane-1,1′-indene]-4-carboxylic acid], the Ki amounted to 1.02 µM. Next, `COc1ccc(C2Cc3ccccc3[C@]23CC[C@@](Nc2cccc(Cl)c2)(C(=O)O)CC3)c(Cl)c1` (single isomer, unassigned) [Example 269, (1r,4r)-4-(3-chloroanilino)-2′-(2-chloro-4-methoxyphenyl)-2′,3′-dihydrospiro[cyclohexane-1,1′-indene]-4-carboxylic acid]: 11.1 µM; `COc1ccc(C)c(C2Cc3ccccc3[C@]23CC[C@@](Nc2cccc(Cl)c2)(C(=O)O)CC3)c1` (single isomer, unassigned) [Example 270, (1r,4r)-4-(3-chloroanilino)-2′-(5-methoxy-2-methylphenyl)-2′,3′-dihydrospiro[cyclohexane-1,1′-indene]-4-carboxylic acid]: 3.96 µM. The value for `COc1ccc(C)c(C2Cc3ccccc3[C@]23CC[C@@](Nc2cccc(Cl)c2)(C(=O)O)CC3)c1` (single isomer, unassigned) [Example 271, (1r,4r)-4-(3-chloroanilino)-2′-(5-methoxy-2-methylphenyl)-2′,3′-dihydrospiro[cyclohexane-1,1′-indene]-4-carboxylic acid] was 12.5 µM; that for `COc1cccc(C2Cc3ccccc3[C@]23CC[C@@](Nc2cccc(Cl)c2)(C(=O)O)CC3)c1` (single isomer, unassigned) [Example 272, (1r,4r)-4-(3-chloroanilino)-2′-(3-methoxyphenyl)-2′,3′-dihydrospiro[cyclohexane-1,1′-indene]-4-carboxylic acid] was 0.127 µM; that for `COc1cccc(C2Cc3ccccc3[C@]23CC[C@@](Nc2cccc(Cl)c2)(C(=O)O)CC3)c1` (single isomer, unassigned) [Example 273, (1r,4r)-4-(3-chloroanilino)-2′-(3-methoxyphenyl)-2′,3′-dihydrospiro[cyclohexane-1,1′-indene]-4-carboxylic acid] was 1.72 µM. The value for `O=C(O)[C@]1(Nc2cccc(Cl)c2)CC[C@@]2(CC1)c1ccccc1CC2c1coc2ccccc12` (single isomer, unassigned) [Example 284, (1r,4r)-2′-(1-benzofuran-3-yl)-4-(3-chloroanilino)-2′,3′-dihydrospiro[cyclohexane-1,1′-indene]-4-carboxylic acid] was 1.22 µM; that for `O=C(O)[C@]1(Nc2cccc(Cl)c2)CC[C@@]2(CC1)c1ccccc1CC2c1coc2ccccc12` (single isomer, unassigned) [Example 285, (1r,4r)-2′-(1-benzofuran-3-yl)-4-(3-chloroanilino)-2′,3′-dihydrospiro[cyclohexane-1,1′-indene]-4-carboxylic acid] was 4.96 µM. `O=C(O)[C@]1(Nc2cccc(Cl)c2)CC[C@@]2(CC1)c1ccccc1CC2c1ccc2c(c1)OCC2` (single isomer, unassigned) [Example 287, (1r,4r)-4-(3-chloroanilino)-2′-(2,3-dihydro-1-benzofuran-6-yl)-2′,3′-dihydrospiro[cyclohexane-1,1′-indene]-4-carboxylic acid]: the Ki turned out to be 0.925 µM. The value for `O=C(O)[C@]1(Nc2cccc(Cl)c2)CC[C@@]2(CC1)c1ccccc1CC2c1ccc2ccoc2c1` (single isomer, unassigned) [Example 290, (1r,4r)-2′-(1-benzofuran-6-yl)-4-(3-chloroanilino)-2′,3′-dihydrospiro[cyclohexane-1,1′-indene]-4-carboxylic acid] was 14.4 µM; that for `COc1cccc(C2Cc3ccccc3[C@]23CC[C@@](Nc2cccc(Cl)c2)(C(=O)O)CC3)c1Cl` (single isomer, unassigned) [Example 291, (1r,4r)-4-(3-chloroanilino)-2′-(2-chloro-3-methoxyphenyl)-2′,3′-dihydrospiro[cyclohexane-1,1′-indene]-4-carboxylic acid] was 2.54 µM. The value for `O=C(O)[C@]1(Nc2cccc(Cl)c2)CC[C@@]2(CC1)c1ccccc1CC2c1cccc2ccoc12` (single isomer, unassigned) [Example 293, (1r,4r)-2′-(1-benzofuran-7-yl)-4-(3-chloroanilino)-2′,3′-dihydrospiro[cyclohexane-1,1′-indene]-4-carboxylic acid] was 0.499 µM; that for `O=C(O)[C@]1(Nc2cccc(Cl)c2)CC[C@@]2(CC1)c1ccccc1CC2c1cccc2ccoc12` (single isomer, unassigned) [Example 294, (1r,4r)-2′-(1-benzofuran-7-yl)-4-(3-chloroanilino)-2′,3′-dihydrospiro[cyclohexane-1,1′-indene]-4-carboxylic acid] was 6.63 µM; that for `O=C(O)[C@]1(Nc2cccc(Cl)c2)CC[C@@]2(CC1)c1ccccc1CC2c1cccc2c1OCC2` (single isomer, unassigned) [Example 295, (1r,4r)-4-(3-chloroanilino)-2′-(2,3-dihydro-1-benzofuran-7-yl)-2′,3′-dihydrospiro[cyclohexane-1,1′-indene]-4-carboxylic acid] was 0.643 µM. Next, `O=C(O)[C@]1(Nc2cccc(Cl)c2)CC[C@@]2(CC1)c1ccccc1CC2c1cccc2c1OCC2` (single isomer, unassigned) [Example 296, (1r,4r)-4-(3-chloroanilino)-2′-(2,3-dihydro-1-benzofuran-7-yl)-2′,3′-dihydrospiro[cyclohexane-1,1′-indene]-4-carboxylic acid]: 3.46 µM; `Cc1ccc(C2Cc3ccccc3[C@]23CC[C@@](Nc2cccc(Cl)c2)(C(=O)O)CC3)cc1` (single isomer, unassigned) [Example 306, (1r,4r)-4-(3-chloroanilino)-2′-(4-methylphenyl)-2′,3′-dihydrospiro[cyclohexane-1,1′-indene]-4-carboxylic acid]: 0.663 µM. `Cc1ccc(C2Cc3ccccc3[C@]23CC[C@@](Nc2cccc(Cl)c2)(C(=O)O)CC3)cc1` (single isomer, unassigned) [Example 307, (1r,4r)-4-(3-chloroanilino)-2′-(4-methylphenyl)-2′,3′-dihydrospiro[cyclohexane-1,1′-indene]-4-carboxylic acid]: the Ki was found to be 9.17 µM.
